Read-outs that look alike come from different tables or passages of the source.
What was measured:
[1] = target: rat brain MAO-A (Rattus norvegicus (Rat), UniProt P21396); experiment: In vitro inhibition of rat brain MAO-A (14C-5-HT substrate); type: biochemical
Experimental: Rats are decapitated and the brains quickly taken into a weighted ice-cold sucrose buffer (0.32 M) and their weights determined. All subsequent procedures are performed at 0° C. The brains are homogenized in 0.32 M sucrose (one part tissue to 20 parts sucrose) in a Teflon glass homogenizer followed by the addition of sucrose buffer to a final concentration of 10% homogenate. The homogenates are centrifuged at 600 g for 15 min. The supernatant fractions are taken out and centrifuged at 4500 g for 30 min, the pellet diluted in 0.32 M sucrose buffer and kept frozen for later assaying of MAO. Protein concentration is determined with Bradford reagent at λ=595 nm, using BSA as a standard.
MAO-A and MAO-B activities are determined in rat brain homogenate in vitro following incubation with varying concentrations of the test compounds.
The activity of MAO-A and MAO-B was determined by the adapted method of Tipton & Youdim (Tipton K F, O'Sullivan J, Youdim M B, 1983, Encyclopedia of Neuroscience, 2004, G. Adelman and B. H. Smith, Elsevier). The test compound was added to a suitable dilution of the enzyme preparation (70 μg protein for MAO-B and 150 μg MAO-A assay) in 0.1 M phosphate buffer (pH 7.4). The mixture was incubated together with […], a specific inhibitor of MAO-B (for determination of MAO-A) or 0.05 M clorgylin, a specific inhibitor of MAO-A (for determination of MAO-B). Incubation was carried for 0.5 or 1 h at 37° C. before addition of ^14C-5-hydroxytryptamine binoxalate (5-HT) (100 or 400 μM) for determination of MAO-A, or ^14C-phenylethylamine (^14C-PEA) 100 or 400 μM for determination of MAO-B, and incubation continued for 30 min or 20 min, respectively. The reaction was stopped with 2 M ice-cold citric acid, and the metabolites were extracted and determined by liquid-scintillation counting in cpm units. […]
MAO-A and MAO-B activity was measured using radioactive substrates. The substrate for MAO-A was 5 HT and for MAO-B was PEA. When measuring the activity of MAO-A, the MAO-B activity was inhibited with deprenyl and when measuring the activity of MAO-B the activity of MAO-A was inhibited with clorgylin. Blank samples were produced using TCP to inhibit both of the enzymes. The metabolites were extracted to toluene and read in a β-counter. The results are expressed in relative activity and normalized to the amount of protein in the tissue.

[2] = target: MAO-A (Mus musculus (Mouse), UniProt Q64133); type: in vivo, mice
MAO-A, sequence (Q64133 whole entry): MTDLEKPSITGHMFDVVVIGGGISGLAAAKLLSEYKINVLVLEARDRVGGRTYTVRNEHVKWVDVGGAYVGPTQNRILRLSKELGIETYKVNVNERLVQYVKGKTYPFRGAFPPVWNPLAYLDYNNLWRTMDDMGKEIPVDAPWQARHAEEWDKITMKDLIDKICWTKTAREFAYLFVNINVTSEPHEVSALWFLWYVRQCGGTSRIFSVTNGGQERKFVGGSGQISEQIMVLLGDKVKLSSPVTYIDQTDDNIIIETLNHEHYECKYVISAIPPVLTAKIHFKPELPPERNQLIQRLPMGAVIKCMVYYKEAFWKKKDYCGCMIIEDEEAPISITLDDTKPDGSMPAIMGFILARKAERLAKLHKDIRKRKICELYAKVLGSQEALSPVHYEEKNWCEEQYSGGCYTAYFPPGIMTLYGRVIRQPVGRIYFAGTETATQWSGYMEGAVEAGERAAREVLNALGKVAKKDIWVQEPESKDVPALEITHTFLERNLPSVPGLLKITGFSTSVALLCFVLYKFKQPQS
Experimental: For the MAO-inhibition study, mice (6 mice in each group) were injected intraperitoneally (i.p.) with compound 3 at the dosage of 5 or 10 mg/kg; or with M30 at the dosage of 10 mg/kg. Control mice received saline (0.1 mL) i.p. One hour later the mice were killed by cervical dislocation, while striatum and small intestine were removed rapidly and frozen in liquid nitrogen for further analysis. FIGS. 3 and 4 show MAO-A/MAO-B in vivo activity of compound 3 compared to the activity of M30. FIG. 3 presents an MAO inhibition in striatum, and FIG. 4 presents an MAO inhibition in intestine. The percent inhibition was computed based on comparison to control animals.

[3] = Plasma stability in vitro in human blood plasma (LC-MS/MS); type: in vitro ADME; details: 10 μM, ~37° C.
Experimental: The stability of the compound 3 was evaluated in human blood plasma. Human plasma was purchased from a commercial source (Bioreclamation, Inc., East Meadow, N.Y.). The plasma was prepared from blood collected using sodium fluoride/potassium oxalate as the anticoagulant. The plasma was stored at −20° C. prior to use. The plasma, once thawed for use, was centrifuged at ˜4000 rpm for five minutes and transferred to a new tube to remove any precipitate. The pH of the plasma was adjusted to 7.4. Compound 3 was added to plasma samples to achieve a final concentration of 10 μM and distributed into the required number of low retention tubes (triplicate tubes for each timepoint) for incubation at ˜37° C. in a water bath. Incubations were terminated at 0, 1, and 6 hours by the addition of three volumes of cold acetonitrile. The supernate after centrifugation was subjected to LC-MS/MS analysis. Stability of the test article was assessed by comparison of the peak area at one and six hours to that at time zero.

[4] = test system: HepG2 cells; experiment: Cytotoxicity in presence and absence of exogenous iron, HepG2; type: cell-based, human
Experimental: (§1) The potential of compound 3 to be toxic in the presence of free iron was also tested. The iron complexation method was based on the method of Leanderson and Tagesson (Carcinogenesis, 17, 545-550, 1996) with some modifications. Iron (III) was prepared from ferric ammonium citrate (Sigma, F5879) at 80 mM in sterile distilled water. Compound 3 was prepared at a 200 mM concentration in DMSO. Before each experiment, the freshly prepared iron (III) solution was diluted to 0.4 mM in PBS II (PBS containing 0.90 mM Ca^2+ and 0.49 mM Mg^2+). Compound 3 stock solutions were diluted to 2, 0.2, and 0.02 mM with PBS II. Equal volumes of the 0.4 mM iron (III) solution and compound 3 solutions were added together to prepare iron/test article complex solutions containing 1, 0.1, and 0.01 mM compound 3 and 0.2 mM iron (III). The compound 3 DMSO stock solution was diluted in PBS II at 1, 0.1, or 0.01 mM and used as compound 3 control without iron. An equal volume of the 0.4 mM iron (III) solution was diluted in PBS II to prepare a control containing only iron.
(§2) The medium was removed from the plated cells (both cell lines) and replaced with fresh medium (90 μL). Iron/compound 3 complex or compound 3 in PBS II without iron was added to cells in triplicate (10 μL) to final compound 3 concentrations of 100, 10, and 1 μM and an iron (III) concentration of 20 μM. Wells containing no cells were used as the background control. PBS II was run as vehicle control. Iron only was run at a final concentration of 20 μM.
(§3) Cell viability was determined as described above and cytotoxicity was compared between treatments with and without iron complexation.

[5] = test system: SHSY-5Y cells; experiment: Cytotoxicity in presence and absence of exogenous iron, SH-SY5Y; type: cell-based, human
Experimental: as §1, §2, §3

[6] = with iron (20 μM), compound 1 μM
[7] = with iron (20 μM), compound 10 μM
[8] = with iron (20 μM), compound 100 μM

rat brain MAO-A, sequence (P21396 whole entry): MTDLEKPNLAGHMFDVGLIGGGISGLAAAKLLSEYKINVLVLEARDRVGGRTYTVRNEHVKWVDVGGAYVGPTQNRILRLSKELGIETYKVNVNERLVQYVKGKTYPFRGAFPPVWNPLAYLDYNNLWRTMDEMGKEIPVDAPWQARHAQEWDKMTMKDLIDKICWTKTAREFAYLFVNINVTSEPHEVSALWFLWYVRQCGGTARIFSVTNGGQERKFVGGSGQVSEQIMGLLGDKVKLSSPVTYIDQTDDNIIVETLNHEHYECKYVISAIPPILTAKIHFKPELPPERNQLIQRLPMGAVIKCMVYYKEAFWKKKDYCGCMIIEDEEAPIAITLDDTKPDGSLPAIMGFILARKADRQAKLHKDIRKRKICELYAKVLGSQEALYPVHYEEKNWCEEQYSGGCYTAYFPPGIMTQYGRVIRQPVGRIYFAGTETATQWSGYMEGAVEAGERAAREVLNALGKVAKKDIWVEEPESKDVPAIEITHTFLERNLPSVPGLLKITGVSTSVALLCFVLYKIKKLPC

## C#CCN(C)CCc1ccc(O)c2ncccc12 [Compound 3, 5-[2-(methyl-2-propyn-1-ylamino)ethyl]-8-quinolinol]
[1]
  IC50: 70 to 90 nM
[1]; rat brain
  Inhibition of rat brain MAO-A in vitro (in words): potent inhibitors
[1]; read-out: MAO-A IC50, estimated from the data in FIG. 1, rat brain MAO-A
  IC50: 70 to 90 nM
[2]; mice, single i.p. injection, 5 or 10 mg/kg, one hour later
  MAO-A inhibition in striatum: inhibited in a dose responsive fashion
[2]; mice, single i.p. injection, small intestine, one hour later
  MAO-A inhibition in intestine: Reduced inhibition in the intestinal tissue versus striatal tissue
[2]; mouse, in vivo, ip
  Penetration of brain tissue: able to penetrate brain tissue
[3]; 0 hour, reference time point
  Amount of compound 3 in human blood plasma: 100%
[3]; 1 hour
  Amount of compound 3 in human blood plasma: 86%
[3]; 6 hours
  Amount of compound 3 in human blood plasma: 93%
[4]; [6]
  HepG2 cell death (%): 4.8%
[4]; [7]
  HepG2 cell death (%): 11.9%
[4]; [8]
  HepG2 cell death (%): 99.5%
[4]; without iron, compound 1 μM
  HepG2 cell death (%): −0.1%
[4]; without iron, compound 10 μM
  HepG2 cell death (%): −0.7%
[4]; without iron, compound 100 μM
  HepG2 cell death (%): −3.6%
[5]; with exogenous iron (20 μM), compound 1 μM
  SHSY-5Y cells alive: 100%
[5]; [6]
  SHSY-5Y cell death (%): −1.0%
[5]; [7]
  SHSY-5Y cell death (%): 7.6%
[5]; [8]
  SHSY-5Y cell death (%): 90.3%
[5]; without iron, compound 1 μM
  SHSY-5Y cell death (%): 2.1%
[5]; without iron, compound 10 μM
  SHSY-5Y cell death (%): 0.8%
[5]; without iron, compound 100 μM
  SHSY-5Y cell death (%): 0.4%

Source: patent US9034303B2, “Neuroprotective and neuro-restorative iron chelators and monoamine oxidase inhibitors and uses thereof” (priority 2010, dated 2015)
